Measured values reported in patent US20250032488A1, “METHODS OF TREATMENT USING LOU064” (NOVARTIS AG, priority 2021, published 2025).

Experiments:
patients with CSU [1] = experiment: Phase 2b core study in CSU: safety; type: in vivo, human
patients with CSU [2] = experiment: Phase 2b trial in CSU: efficacy; type: in vivo, human; conditions: 25 mg b.i.d. regimen, 12 weeks
Protocol: In a Phase 2b, randomized, double-blind, placebo-controlled trial evaluating the efficacy and safety of remibrutinib over 12 weeks in patients inadequately controlled by H1-antihistamines, with at least moderately active CSU, patients received remibrutinib 10 mg q.d. (once daily), 35 mg q.d., 100 mg q.d., 10 mg b.i.d. (twice daily), 25 mg b.i.d., 100 mg b.i.d., or placebo (1:1:1:1:1:1:1 ratio).

healthy atopic subjects = conditions: doses of greater than or equal to 100 mg qd, MAD, across all tests; cited from earlier work
BALB/c mice [3] = experiment: Ovalbumin induced anaphylaxis mouse model: BALF cell counts; type: in vivo; conditions: 10 mg/kg, 30 mg/Kg p.o. B.I.D., OVA-sensitized mice with poly I:C
Protocol: This experiment was carried out to investigate the anti-inflammatory effect of LOU064 (10 mg and 30 mg/Kg in OVA-sensitized mice instilleed with polyinosine-polycytidylic acid (poly I: C).
Mice were actively sensitised with ovalbumin (15 μg, s.c.) and 25 μL of Imject Alum on days 0, 7 and 14. In order to elicit a local inflammatory response in the lung, mice were repeatedly exposed on days 21-24 with an aerosol of 1% w/v ovalbumin in phosphate buffered saline (PBS), generated with an ultrasonic nebuliser (Aerogen) for 20 min. 16 h after the final exposure to OVA on day 24, polyinosine-polycytidylic acid (poly I: C, 100 μg/animal) or the vehicle (PBS) was delivered intratracheally with a Microsprayer (model IA-1C with FMJ-250 high pressure syringe, Penn-Century) under anaesthesia with ketamine (100 mg/Kg, i.p.) and xylazine (10 mg/Kg, i.p.). […]
24 h after the final OVA challenge, blood samples were collected by venepuncture into pre-chilled Li Hep tubes. […] The cell pellets were then re-suspended in 1.6 mL of phosphate buffered saline and the BAL cells were then analysed for total and differential numbers. Total and differential cell counts of the BAL fluid samples were measured using a XT-2000iV analyser (Sysmex). […]

PBMC-derived mast cells = experiment: FcER-induced degranulation of PBMC-derived mast cells; type: cell-based; conditions: Homo sapiens, Mast cell; n=7 donors; read-out: IC50, degranulation of primary human PBMC-derived mast cells (β-tryptase)
Excerpt: cells (PBMC)-derived mast cells Rationale and method: Primary human mast cells were derived from CD34-positive progenitor cells isolated from PBMC ((Neuberger, M.S. et al. (1985), Nature 314 (6008), pp 268-70. doi: 10.1038/314268a0). Blood from healthy volunteers was provided under informed consent and collected through the Novartis Tissue Donor Program in accordance with the Swiss Human Research Act and approval of the responsible ethic committee (Ethikkommission Nordwest-und Zentralschweiz). Briefly, CD34-positive cells were isolated from peripheral blood by positive selection and cultured in medium containing SCF, IL-6 and IL-3. After a 6 week differentiation culture, mast cells were harvested and characterized phenotypically for expression of c-Kit (CD117) and FcERI. The degranulation is based on NIP haptenized BSA and the NIP-specific chimeric IgE antibody JW8 (described in RD-2013-00412). The mast cells were sensitized with JW8 IgE antibody and then incubated with serial compound dilutions for 30 minutes at 37° C. Then degranulation was triggered by adding haptenized NIP-BSA to crosslink the FcER. After one hour, supernatants were collected and analyzed for β-tryptase levels.

BALB/c mice [4] = experiment: Passive cutaneous anaphylaxis (PCA) in mice: skin edema; type: in vivo; conditions: doses as low as 3 mg/kg, two oral administrations
Protocol: LOU064 was tested in a murine PCA model. The model used BALB/c mice aged 8-10 weeks of age. For passive sensitization with hapten-specific IgE, mice under isoflurane anesthesia were given an intradermal injection of 20 μl anti-DNP IgE in saline into the right ear and 20 μl of saline into the left ear. For FccR-specific PCA, mice were given a low dose of 3 ng anti-DNP IgE. For maximal PCA mice were given a high dose of 25 ng anti-DNP IgE. LOU064 was administered p.o. in a volume of 5 ml/kg body weight. A first dose was administered 4 hours after sensitization on the evening before challenge. The next morning, 2 hours prior to hapten challenge, mice were given a second oral dose of LOU064.
Mice were challenged with hapten 2 hours after the second dose by placing them into a heated chamber. Animals were then injected i.v. with 100 μg of the hapten DNP-HSA (dinitrophenyl-human serum albumin) in 200 μl of 2% Evans blue diluted in PBS. The mice were then returned to their cage for exactly 30 minutes. Thirty minutes later, animals were then anesthetized with isoflurane and bled retro-orbitally using EDTA coated blood collection tubes for analysis of compound exposure. […] Twenty-four hours later 80 μl of formalin solution were transferred to a clear flat bottom 96 well plate and the optical absorption was read at 620 nm. […] Statistical significance was determined by ANOVA. […]

[5] = Core study, Any dose, N = 267, listed as remibrutinib

SMILES: C=CC(=O)N(C)CCOc1c(N)ncnc1-c1cc(F)cc(NC(=O)c2ccc(C3CC3)cc2F)c1C [LOU064, N-(3-(6-amino-5-(2-(N-methylacrylamido)ethoxy)pyrimidin-4-yl)-5-fluoro-2-methylphenyl)-4-cyclopropyl-2-fluorobenzamide]
- Patients with newly occurring ALT>5xULN (patients with CSU [1]; CS, normalised on treatment): 1 patient
- Patients with ≥1 AE (patients with CSU [1]; Core study, 10 mg b.i.d., N = 44): 21 n
- Patients with ≥1 AE (patients with CSU [1]; Core study, 10 mg q.d., N = 44): 29 n
- Patients with ≥1 AE (patients with CSU [1]; Core study, 25 mg b.i.d., N = 43): 26 n
- Patients with ≥1 AE (patients with CSU [1]; Core study, 35 mg q.d., N = 44): 23 n
- Patients with ≥1 AE (patients with CSU [1]; Core study, 100 mg b.i.d., N = 45): 29 n
- Patients with ≥1 AE (patients with CSU [1]; Core study, 100 mg q.d., N = 47): 27 n
- Headache (AEs by PT) (patients with CSU [1]; [5]): 9.7%
- Infections and infestations (AEs by primary system organ class) (patients with CSU [1]; [5]): 24.0%
- Skin and subcutaneous tissue disorders (AEs by primary system organ class) (patients with CSU [1]; [5]): 16.9%
- Efficacy in CSU (patients with CSU [2]): particularly effective
- Average decrease in wheal size (SPT) (healthy atopic subjects): 3 mm
- Numbers of cells involved in lung anaphylaxis (BALF) (BALB/c mice [3]): significantly reduced
- IC50 (PBMC-derived mast cells): 5.7 nM
- Inhibition of the anaphylactic response (PCA) (BALB/c mice [4]): near complete inhibition
